Measured values taken from PubChem BioAssay (NCI).
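96-well plates; 48 h exposure; 5 concentrations. Endpoints by linear interpolation between flanking doses. Not reached: highest tested concentration assigned. Abbreviation: GI50, concentration required for 50% inhibition of growth. At the TGI there is no net growth.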

Experiments:
Assay in all cases: inhibition of tumour cell growth, NCI panel, 48 h
[1] = tested on: HL-60(TB) leukemia
[2] = tested on: RPMI-8226 leukemia
[3] = tested on: COLO 205 colon
[4] = tested on: HOP-62 NSCLC
[5] = tested on: U251 CNS
[6] = tested on: IGROV1 ovarian
[7] = tested on: MDA-MB-435
[8] = tested on: TK-10 renal
[9] = tested on: OVCAR-5 ovarian
[10] = tested on: SF-295 CNS
[11] = tested on: SN12C renal
[12] = tested on: SF-268 CNS
[13] = tested on: CCRF-CEM leukemia
[14] = tested on: OVCAR-4 ovarian
[15] = tested on: UO-31 renal
[16] = tested on: HT29 colon
[17] = tested on: NCI-H226 lung
[18] = tested on: 786-0 renal
[19] = tested on: A549 NSCLC
[20] = tested on: NCI-H460 lung
[21] = tested on: A498 renal
[22] = tested on: SNB-75 CNS
[23] = tested on: MALME-3M melanoma
[24] = tested on: MCF7 breast
[25] = tested on: LOX IMVI melanoma
[26] = tested on: SW-620 colon
[27] = tested on: UACC-62 melanoma
[28] = tested on: HS 578T breast
[29] = tested on: SK-MEL-2 melanoma
[30] = tested on: ACHN renal
[31] = tested on: UACC-257 melanoma
[32] = tested on: RXF 393 renal
[33] = tested on: OVCAR-3 ovarian
[34] = tested on: CAKI-1 renal
[35] = tested on: NCI-H522 lung
[36] = tested on: NCI/ADR-RES ovarian
[37] = tested on: HCT-15 colon
[38] = tested on: HCT-116 colon
[39] = tested on: SF-539 CNS
[40] = tested on: KM12 colon
[41] = tested on: MDA-MB-231 breast
[42] = tested on: SNB-19 CNS
[43] = tested on: DU-145 prostate
[44] = tested on: HCC-2998 colon
[45] = tested on: BT-549 breast
[46] = tested on: NCI-H23 lung
[47] = tested on: PC-3 prostate
[48] = tested on: EKVX NSCLC
[49] = tested on: T-47D breast
[50] = tested on: SK-MEL-28 melanoma
[51] = tested on: SK-MEL-5 melanoma
[52] = tested on: K-562 leukemia
[53] = tested on: SR leukemia
[54] = tested on: MOLT-4 leukemia
[55] = tested on: SK-OV-3 ovarian
[56] = tested on: HOP-92 NSCLC
[57] = tested on: M14 melanoma
[58] = tested on: OVCAR-8 ovarian

O=C(Nc1cccc(-c2nc(-c3ccc(NC(=O)c4cccs4)cc3Cl)no2)c1)Nc1ccc(NC(=O)C2CC2)c(C(F)(F)F)c1
GI50 [1]: 2270 nM | TGI [1]: > 26800 nM | GI50 [2]: 396 nM | TGI [2]: 2140 nM | GI50 [3]: 291 nM | TGI [3]: 903 nM | GI50 [4]: 241 nM | TGI [4]: 624 nM | GI50 [5]: 193 nM | TGI [5]: 414 nM | GI50 [6]: 229 nM | TGI [6]: 574 nM | GI50 [7]: 230 nM | TGI [7]: 547 nM | GI50 [8]: 338 nM | TGI [8]: 1540 nM | GI50 [9]: 306 nM | TGI [9]: 1140 nM | GI50 [10]: 191 nM | TGI [10]: 370 nM | GI50 [11]: 220 nM | TGI [11]: 576 nM | GI50 [12]: 344 nM | TGI [12]: 1450 nM | GI50 [13]: 518 nM | TGI [13]: > 35400 nM | GI50 [14]: 223 nM | TGI [14]: 492 nM | GI50 [15]: 993 nM | TGI [15]: 3090 nM | GI50 [16]: 347 nM | TGI [16]: 2110 nM | GI50 [17]: 227 nM | TGI [17]: 601 nM | GI50 [18]: 283 nM | TGI [18]: 1010 nM | GI50 [19]: 246 nM | TGI [19]: 653 nM | GI50 [20]: 204 nM | TGI [20]: 412 nM | GI50 [21]: 174 nM | TGI [21]: 742 nM | GI50 [22]: 183 nM | TGI [22]: 1010 nM | GI50 [23]: 183 nM | TGI [23]: 376 nM | GI50 [24]: 220 nM | TGI [24]: 643 nM | GI50 [25]: 185 nM | TGI [25]: 356 nM | GI50 [26]: 256 nM | TGI [26]: 660 nM | GI50 [27]: 205 nM | TGI [27]: 527 nM | GI50 [28]: 230 nM | TGI [28]: 678 nM | GI50 [29]: 343 nM | TGI [29]: 1290 nM | GI50 [30]: 467 nM | TGI [30]: 3860 nM | GI50 [31]: 836 nM | TGI [31]: 3230 nM | GI50 [32]: 214 nM | TGI [32]: 494 nM | GI50 [33]: 280 nM | TGI [33]: 778 nM | GI50 [34]: 244 nM | TGI [34]: 678 nM | GI50 [35]: 244 nM | TGI [35]: 729 nM | GI50 [36]: 3610 nM | TGI [36]: > 100000 nM | GI50 [37]: 409 nM | TGI [37]: 1850 nM | GI50 [38]: 321 nM | TGI [38]: 1690 nM | GI50 [39]: 188 nM | TGI [39]: 381 nM | GI50 [40]: 317 nM | TGI [40]: 1050 nM | GI50 [41]: 219 nM | TGI [41]: 557 nM | GI50 [42]: 301 nM | TGI [42]: 1060 nM | GI50 [43]: 317 nM | TGI [43]: 1130 nM | GI50 [44]: 321 nM | TGI [44]: 1140 nM | GI50 [45]: 414 nM | TGI [45]: 2430 nM | GI50 [46]: 226 nM | TGI [46]: 571 nM | GI50 [47]: 209 nM | TGI [47]: 460 nM | GI50 [48]: 295 nM | TGI [48]: 1200 nM | GI50 [49]: 257 nM | TGI [49]: 972 nM | GI50 [50]: 209 nM | TGI [50]: 450 nM | GI50 [51]: 478 nM | TGI [51]: 1870 nM | GI50 [52]: 296 nM | TGI [52]: 1670 nM | GI50 [53]: 254 nM | TGI [53]: 898 nM | GI50 [54]: 359 nM | TGI [54]: 1790 nM | GI50 [55]: 795 nM | TGI [55]: 2990 nM | GI50 [56]: 180 nM | TGI [56]: 450 nM | GI50 [57]: 324 nM | TGI [57]: 1270 nM | GI50 [58]: 311 nM | TGI [58]: 1330 nM
